Measurements published in patent US6342516B1, “Phenylazole compounds, process for producing the same and drugs for hyperlipemia” (Nippon Soda Co., Ltd., priority 1998, dated 2002).

Tested on: cholesterol-fed hamsters
Test: Effect on serum lipids of cholesterol-fed hamsters (serum total cholesterol and triglyceride reduction rate)
Format: in vivo
Conditions: cholesterol-fed Syrian hamsters, oral once a day for 5 days
Method: Pharmacological Test Example 1: Effect on serum lipids of cholesterol-fed hamsters
Syrian hamsters (Std:Syrian, Male, 4 weeks old) were freely fed with chow containing 1% cholesterol and 10% coconut oil for 3 weeks ad libitum.
At the last week of feeding, each of the test compounds was dissolved or suspended in either 0.1% hydrochloric acid solution or 1% polyethylene-hydrogenated castor oil (NIKKOL HCO-60) solution and was orally administrated to hamsters once a day for 5 days. For the hamsters of the control group, only the solvent was orally administered. Then, blood was collected from the abdominal vein under the condition of anesthesia with pentobarbital at 2-4 hours after the last administration, and the serum in the blood was separated. The serum total cholesterol value and the serum triglyceride value were determined by using autobiochemical analyzer with analizing kits, and reduction rate of the serum lipids was determined according to the equation indicated below based on the analyzed values for respective hamster groups.
Serum lipids reduction rate (%)=(Amount of serum lipids of the control group−Amount of serum lipids of the group administrated with the test compound)/Amount of serum lipids of the control group×100

| Structure (SMILES) | Serum lipids reduction rate comparing to Control group (%), Means of 3 animals: Total cholesterol (dose 25 mg/kg) | Serum lipids reduction rate comparing to Control group (%), Means of 3 animals: Triglyceride (dose 25 mg/kg) | further results |
| --- | --- | --- | --- |
| CC1(C(=O)Nc2ccc(-n3ccnc3)cc2)Cc2ccccc2O1 (racemic) [4-12] | 27% | 41% | – |
| COc1cc2cc(CCC(=O)Nc3ccc(-n4ccnc4)cc3)n(S(C)(=O)=O)c2cc1OC [4-100] | 26% | 33% | – |
| O=C(Nc1ccc(-n2ccnc2)cc1)C1CCc2ccccc2O1 (racemic) [4-11] | 43% | 47% | – |
| O=C(Nc1ccc(-n2ccnc2)cc1)c1ccccn1 [4-24] | – | – | Serum lipids reduction rate comparing to Control group (%), Means of 3 animals: Total cholesterol (dose 12.5 mg/kg): 30%; Serum lipids reduction rate comparing to Control group (%), Means of 3 animals: Triglyceride (dose 12.5 mg/kg): 25% |
| O=C(COc1ccc2ncccc2c1)Nc1ccc(-n2ccnc2)cc1 [4-73] | 34% | 50% | – |
| O=C(COc1ccc2c(c1)OCO2)Nc1ccc(-n2ccnc2)cc1 [4-80] | 40% | 52% | – |
| O=C(Nc1ccc(-n2ccnc2)cc1)c1cc2cc(F)ccc2[nH]1 [4-9] | 44% | 61% | – |
| O=C(Nc1ccc(-n2ccnc2)cc1)c1ccc2ccccc2n1 [4-41] | 50% | 67% | – |
| O=C(Nc1ccc(-n2ccnc2)cc1)c1cc2cc(Cl)ccc2[nH]1 [Compound No. 4-8] | 37% | 73% | – |
| CC(C)c1cc(C(=O)Nc2ccc(-n3ccnc3)cc2)cc(O)n1 [4-28] | – | – | Serum lipids reduction rate comparing to Control group (%), Means of 3 animals: Total cholesterol (dose 12.5 mg/kg): 24%; Serum lipids reduction rate comparing to Control group (%), Means of 3 animals: Triglyceride (dose 12.5 mg/kg): 34% |
| COc1ccc2c(c1)cc(C(=O)Nc1ccc(-n3ccnc3)cc1)n2C [4-6] | – | – | Serum lipids reduction rate comparing to Control group (%), Means of 3 animals: Total cholesterol (dose 12.5 mg/kg): 41%; Serum lipids reduction rate comparing to Control group (%), Means of 3 animals: Triglyceride (dose 12.5 mg/kg): 71% |
| O=C(COc1ccc2ccccc2n1)Nc1ccc(-n2ccnc2)cc1 [4-96] | 36% | 50% | – |
| Cn1c(CCC(=O)Nc2ccc(-n3ccnc3)cc2)nc2ccccc21 [4-97] | – | – | Serum lipids reduction rate comparing to Control group (%), Means of 3 animals: Total cholesterol (dose 12.5 mg/kg): 26%; Serum lipids reduction rate comparing to Control group (%), Means of 3 animals: Triglyceride (dose 12.5 mg/kg): 33% |
| O=C(Cn1c(=O)ccc2ccccc21)Nc1ccc(-c2ccn[nH]2)cc1 [4-91] | 37% | 48% | – |
| CC12CCC(C(=O)Nc3ccc(-n4ccnc4)cc3)(OC1=O)C2(C)C (stereo not shown) [4-19] | 19% | 50% | – |
| Cc1ccc2[nH]c(C(=O)Nc3ccc(-n4ccnc4)cc3)cc2c1 [4-7] | 27% | 31% | – |
| O=C(Nc1ccc(-n2ccnc2)cc1)c1ccc2ccc(O)nc2c1 [4-44] | 21% | 31% | – |
| O=C(CCc1cccnc1)Nc1ccc(-n2ccnc2)cc1 [4-90] | 22% | 36% | – |
| O=C(Nc1ccc(-n2ccnc2)cc1)c1cc2ccccc2o1 [4-31] | 46% | 59% | – |
| Cn1c(C(=O)Nc2ccc(-n3ccnc3)cc2)cc2ccccc21 [4-4] | – | – | Serum lipids reduction rate comparing to Control group (%), Means of 3 animals: Total cholesterol (dose 12.5 mg/kg): 23%; Serum lipids reduction rate comparing to Control group (%), Means of 3 animals: Triglyceride (dose 12.5 mg/kg): 32% |
| Cn1cccc1C(=O)Nc1ccc(-n2ccnc2)cc1 [4-39] | 25% | 45% | – |
| Cn1ccc(C(=O)Nc2ccc(-n3ccnc3)cc2)c1 [4-3] | 75% | 91% | – |
| O=C(Nc1ccc(-n2ccnc2)cc1)c1cnccn1 [4-33] | – | – | Serum lipids reduction rate comparing to Control group (%), Means of 3 animals: Total cholesterol (dose 12.5 mg/kg): 35%; Serum lipids reduction rate comparing to Control group (%), Means of 3 animals: Triglyceride (dose 12.5 mg/kg): 44% |
| O=C(Nc1ccc(-n2ccnc2)cc1)c1n[nH]c2ccccc12 [4-34] | 37% | 39% | – |

| Structure (SMILES) | Serum lipids reduction rate comparing to Control group (%), Means of 3 animals: Total cholesterol (dose 25 mg/kg) | Serum lipids reduction rate comparing to Control group (%), Means of 3 animals: Triglyceride (dose 25 mg/kg) | further results |
| --- | --- | --- | --- |
| Cc1cc(C(=O)Nc2ccc(-n3ccnc3)cc2)n(C)n1 [4-14] | 66% | 42% | – |
| O=C(Nc1ccc(-n2ccnc2)cc1)c1cnc2ccccc2c1 [4-66] | 55% | 66% | – |
| Cc1cc(=O)oc2cc(OCC(=O)Nc3ccc(-n4ccnc4)cc3)ccc12 [4-88] | 39% | 53% | – |
| Cc1c(C(=O)Nc2ccc(-n3ccnc3)cc2)oc2ccccc12 [4-62] | 42% | 59% | – |
| O=C(Nc1ccc(-n2ccnc2)cc1)C1CCCO1 (racemic) [4-17] | – | – | Serum lipids reduction rate comparing to Control group (%), Means of 3 animals: Total cholesterol (dose 12.5 mg/kg): 35%; Serum lipids reduction rate comparing to Control group (%), Means of 3 animals: Triglyceride (dose 12.5 mg/kg): 53% |
| O=C(COc1nccc(C(F)(F)F)n1)Nc1ccc(-n2ccnc2)cc1 [4-103] | 35% | 46% | – |
| O=C(CCOC1CCOC1)Nc1ccc(-n2ccnc2)cc1 (stereo not shown) [4-104] | 25% | 38% | – |
| O=C(Nc1ccc(-n2ccnc2)cc1)c1cccnc1 [4-26] | – | – | Serum lipids reduction rate comparing to Control group (%), Means of 3 animals: Total cholesterol (dose 6.25 mg/kg): 22%; Serum lipids reduction rate comparing to Control group (%), Means of 3 animals: Triglyceride (dose 6.25 mg/kg): 48% |
| Cc1cc(C(=O)Nc2ccc(-n3ccnc3)cc2)[nH]n1 [4-15] | – | – | Serum lipids reduction rate comparing to Control group (%), Means of 3 animals: Total cholesterol (dose 12.5 mg/kg): 37%; Serum lipids reduction rate comparing to Control group (%), Means of 3 animals: Triglyceride (dose 12.5 mg/kg): 73% |
| O=C(Nc1ccc(-n2ccnc2)cc1)c1nccc2ccccc12 [4-22] | 48% | 61% | – |
| O=C(CN1C(=O)COc2ccccc21)Nc1ccc(-c2cn[nH]c2)cc1 [4-92] | 29% | 34% | – |
| O=C(Nc1ccc(-n2ccnc2)cc1)c1ccncc1 [4-27] | 40% | 46% | – |
| COc1cccc2cc(C(=O)Nc3ccc(-n4ccnc4)cc3)oc12 [4-63] | 26% | 29% | – |
| O=C1CCC(C(=O)Nc2ccc(-n3ccnc3)cc2)=NN1 [4-46] | 52% | 45% | – |
| O=C(Nc1ccc(-n2ccnc2)cc1)c1ccco1 [4-48] | 76% | 85% | – |
| O=C(CSc1cnccn1)Nc1ccc(-n2ccnc2)cc1 [4-87] | 34% | 37% | – |
| O=C(Nc1ccc(-n2ccnc2)cc1)c1cc2ccccc2[nH]1 [4-2] | – | – | Serum lipids reduction rate comparing to Control group (%), Means of 3 animals: Total cholesterol (dose 12.5 mg/kg): 32%; Serum lipids reduction rate comparing to Control group (%), Means of 3 animals: Triglyceride (dose 12.5 mg/kg): 45% |
| O=C(Nc1ccc(-n2ccnc2)cc1)c1ccc(Cl)nc1 [4-25] | – | – | Serum lipids reduction rate comparing to Control group (%), Means of 3 animals: Total cholesterol (dose 12.5 mg/kg): 25%; Serum lipids reduction rate comparing to Control group (%), Means of 3 animals: Triglyceride (dose 12.5 mg/kg): 52% |
| O=C(Nc1ccc(-n2ccnc2)cc1)C1COc2ccccc2O1 (stereo not shown) [4-70] | 34% | 48% | – |
| O=C(COc1cnc2ccccc2n1)Nc1ccc(-n2ccnc2)cc1 [4-79] | – | – | Serum lipids reduction rate comparing to Control group (%), Means of 3 animals: Total cholesterol (dose 12.5 mg/kg): 29%; Serum lipids reduction rate comparing to Control group (%), Means of 3 animals: Triglyceride (dose 12.5 mg/kg): 45% |
| O=C(Nc1ccc(-n2ccnc2)cc1)C1CCOCC1 [4-32] | 58% | 68% | – |
| O=C(COc1cccnc1)Nc1ccc(-n2ccnc2)cc1 [Compound No. 4-85] | 39% | 44% | – |
| O=C(Nc1ccc(-n2ccnc2)cc1)c1ccc2c(c1)OCO2 [4-21] | 51% | 57% | – |
